Data as given in publication PMC12410356 (International Journal for Parasitology: Drugs and Drug …, 2025).

How the values were obtained:
[1] = tested on: E. multilocularis metacestode vesicles; assay: Metacestode vesicle viability assay (ATP, CellTiter-Glo); type: cell-based, Echinococcus multilocularis
Procedure: Viability was assessed after 12 days using the same metacestode vesicles as for the PGI release assay. Triton X-100 was added to each well to a final concentration of 0.1 %. Subsequently the metacestode vesicles were broken mechanically and 50 μL of the supernatant was mixed with 50 μL of CellTiter-Glo® buffer (Promega, Dübendorf, Switzerland). Measurements were performed on a HIDEX Sense microplate reader.

[2] = tested on: E. multilocularis metacestode vesicles; assay: Phosphoglucose isomerase (PGI) release assay (damage-marker release) on metacestode vesicles; type: cell-based, Echinococcus multilocularis; conditions: 10 μM; for PGI d5 (relative PGI release): 5 days; for PGI d12 (relative PGI release): 12 days
[3] = overview screen, 10 μM, singlets, 12 days, relative to DMSO control
[4] = overview screen, singlets, relative to 0.1 % Triton X-100, DMSO subtracted
[5] = confirmation screen, triplicates, mean

Compound	Viability d12 (relative viability) [1, 3]	PGI d5 (relative PGI release) [2, 4]	PGI d12 (relative PGI release) [2, 4]	Viability d12 (relative viability) ([1]; 10 µM)	Viability d12 (relative viability) ([1]; confirmation screen, 10 μM, triplicates, mean, 12 days)	PGI d5 (relative PGI release) [2, 5]	PGI d12 (relative PGI release) [2, 5]
Cc1ccc(Oc2ccccc2-c2csc(N=C3NCCCN3)n2)c(C)c1 [MMV1634493]	36.7387%	4.111%	7.6311%	–	–	–	–
CNCC(=O)OCc1cccnc1N(C)C(=O)OC(C)[n+]1cnn(C[C@](O)(c2cc(F)ccc2F)[C@@H](C)c2nc(-c3ccc(C#N)cc3)cs2)c1 (stereo partly drawn) [MMV1634494]	42.7505%	-2.972%	-24.8266%	–	–	–	–
CCc1cc(CCCOc2c(C)cc(-c3noc(C(F)(F)F)n3)cc2C)on1 [MMV1634556]	121.169%	0.6182%	-18.063%	–	–	–	–
COc1cc(C2C3=C(CC(C)(C)CC3=O)Nc3ccccc3N2C(C)=O)ccc1OCc1ccccc1 (stereo not drawn) [MMV1634557]	141.611%	-2.659%	-23.764%	–	–	–	–
O=[N+]([O-])/C(Br)=C/c1ccc(Br)o1 [MMV1645051]	16.4489%	1.139%	-20.9736%	–	–	–	–
Nc1nc(O)c(Br)c(-c2cccc(Cl)c2)n1 [MMV1645152]	465.171%	-0.1718%	-17.4315%	–	–	–	–
CCc1nc2ccccn2c1C(=O)NCc1ccccc1 [MMV1663457]	46.6749%	-2.34%	-12.7903%	–	–	–	–
O=C(NCc1ccc(F)cc1)c1c(O)c2ncccc2[nH]c1=O [MMV1782097]	171.617%	0.7945%	-0.6563%	–	–	–	–
CCCCN1C[C@H](O)[C@@H](O)[C@H](O)[C@H]1CO [MMV1782098]	82.1234%	-0.9049%	-0.1991%	–	–	–	–
COc1cc(C(C)(C)CCCC(C)C)cc(OC)c1OC [MMV1782102]	58.4954%	0.2099%	-19.1561%	–	–	–	–
COCCn1cnc2c(O)nc(Nc3ccccc3)nc21 [MMV1782103]	66.6969%	-0.2041%	-2.0996%	–	–	–	–
NC(=O)c1nccn([C@@H]2O[C@H](CO)[C@@H](O)[C@H]2O)c1=O [MMV1782104]	106.79%	1.472%	-19.2173%	–	–	–	–
O=c1oc2ccc(Br)cc2cc1CSc1ncc[nH]1 [MMV1782105]	107.746%	1.562%	-17.9407%	–	–	–	–
CCc1cc(CCC(=O)Nc2ccccc2O)c(=O)[nH]c1C [MMV1782106]	488.194%	1.217%	-17.9747%	–	–	–	–
O=c1[nH]c(=O)n(Cc2cccc(Oc3ccccc3)c2)cc1Nc1ccccc1 [MMV1782107]	211.334%	0.6712%	-19.0475%	–	–	–	–
CCCCc1ccc(S(=O)(=O)Nc2cc(C)on2)cc1 [MMV1782108]	50.3487%	-2.561%	-24.5808%	–	–	–	–
O=C(N[C@H](Cc1cccc2ccccc12)C(=O)NCCc1c[nH]cn1)C1Cc2ccccc2C1 [MMV1782109]	29.391%	-2.59%	-25.3398%	–	–	–	–
O=C(CCc1ccc2c(c1)OCO2)NCc1ccc(-c2ccccc2F)cc1 [MMV1782110]	100.363%	-0.8152%	-13.3688%	–	–	–	–
CC(C)C(=O)N[C@H]1[C@H]([C@H](O)[C@H](O)CO)OC(C(=O)O)=C[C@@H]1N=[N+]=[N-] [MMV1782111]	85.5263%	-0.6196%	0.1424%	–	–	–	–
CCOC(=O)/C=C/[C@H](C[C@@H]1CCNC1=O)NC(=O)[C@H](CC)n1cccc(NC(=O)c2cc(C)on2)c1=O [MMV1782112]	109.382%	0.1675%	-19.6518%	–	–	–	–
CCCC1(C2CC2)c2cc(Cl)ccc2NC(=O)N1C (stereo not drawn) [MMV1782113]	107.305%	0.2859%	0.236%	–	–	–	–
COc1ccc2sc3c(c2c1)NC(C)CNC3=O (stereo not drawn) [MMV1782115]	114.23%	-1.121%	1.77%	–	–	–	–

Compound	Viability d12 (relative viability) [1, 3]	PGI d5 (relative PGI release) [2, 4]	PGI d12 (relative PGI release) [2, 4]	Viability d12 (relative viability) ([1]; 10 µM)	Viability d12 (relative viability) ([1]; confirmation screen, 10 μM, triplicates, mean, 12 days)	PGI d5 (relative PGI release) [2, 5]	PGI d12 (relative PGI release) [2, 5]
O=C(Nc1nnc(-c2ccc(Cl)cc2)o1)c1ccc(F)cc1 [MMV1782140]	86.8653%	-3.764%	9.726%	–	–	–	–
CN1C(=O)C(c2ccccc2)C(=O)N(c2ccccc2)c2cc(C(F)(F)F)ccc21 (stereo not drawn) [MMV1782208]	97.8548%	0.993%	-0.2102%	–	–	–	–
COc1ccc(C(C)(C)C)cc1NC(=O)C(=O)c1ccc(OCCN2CCOCC2)c2ccccc12 [MMV1782209]	152.31%	0.2921%	0.2691%	–	–	–	–
Nc1nc2c(ncn2/C=C2/CC2(CO)CO)c(=O)[nH]1 [MMV1782210]	144.056%	0.1371%	-1.147%	–	–	–	–
C[C@@H](NC(=O)c1cccc(-c2cnc(-c3cc4ccccc4cn3)[nH]2)c1)c1ccc(F)cc1 [MMV1782211]	82.804%	2.451%	6.1027%	–	–	–	–
CC(C)(C)c1ccc(C(=O)NC(=O)N2CCCc3ccccc32)cc1 [MMV1782212]	85.4175%	-2.428%	-24.6748%	–	–	–	–
O=C(CSc1nnc(Br)n1-c1ccc(C2CC2)c2ccccc12)Nc1ccc(C(=O)O)cc1Cl [MMV1782213]	116.37%	1.533%	-0.7445%	–	–	–	–
C=CCN(C(=O)OCc1ccc([N+](=O)[O-])cc1)C1CCN(CC[C@](C)(CN(C)S(=O)(=O)c2ccccc2)c2ccccc2)CC1 [MMV1782214]	76.726%	0.9992%	3.53%	–	–	–	–
O=P(O)(O)C(CCCc1cccc(Oc2ccccc2)c1)S(=O)(=O)O (stereo not drawn) [MMV1782215]	65.7947%	0.5378%	19.5176%	–	–	–	–
CCCNc1ccc(S(=O)(=O)Nc2cc(C)on2)cc1 [MMV1782216]	105.791%	-2.087%	-24.1037%	–	–	–	–
Cc1cc(NS(=O)(=O)c2ccc(-c3ccc(F)cc3F)cc2)no1 [MMV1782217]	58.3644%	-2.099%	-26.6121%	–	–	–	–
O=C(NC(=O)N1CCCc2ccccc21)c1ccc(Cl)cc1Cl [MMV1782218]	60.7859%	-2.44%	-25.0073%	–	–	–	–
CC(C)CCN1C(=O)C(C2=NS(=O)(=O)c3cc(NS(C)(=O)=O)ccc3N2)=C(O)[C@@H]2[C@H]3CC[C@H](C3)[C@@H]21 [MMV1782220]	132.239%	0.5402%	0.853%	–	–	–	–
C[C@H](c1cccc2ccccc12)N(C)Cc1ccccc1 [MMV1782221]	45.2554%	2%	-21.1471%	–	–	–	–
CN1c2ccc(Cl)cc2N(c2ccccc2)C(=O)c2cn(Cc3ccc(CN4CCOCC4)cc3)nc21 [MMV1782222]	123.597%	-0.005582%	0.3517%	–	–	–	–
CN(C)c1[nH]c(=O)ncc1F [MMV1782223]	98.8605%	-2.446%	-24.7543%	–	–	–	–
N#C/C(=C1/SC[C@@H](c2ccc(Cl)cc2Cl)S1)n1ccnc1 [MMV1782224]	–	12.0659%	-22.8965%	41.9155%	–	–	–
O=C(Nc1[nH]c(=O)ncc1F)c1ccccc1 [MMV1782225]	224.691%	-0.8152%	-21.87%	–	–	–	–
OB1OCc2c1ccc(Cl)c2F [MMV1782226]	39.4941%	-2.405%	-26.1495%	–	–	–	–
O=C(NNC(=S)Nc1ccc(Cl)cc1)c1ccncc1 [MMV1782227]	12.3576%	3.665%	72.3585%	–	83.65%	0.0543%	-0.30%
Cc1cc(CCOc2c(C)cc(-c3nnn(C)n3)cc2C)on1 [MMV1782349]	107.625%	-0.7312%	-0.8271%	–	–	–	–
CC(C)Oc1ccc(-n2cnc3cc(/C=C\c4ccc(C(C)(C)O)cc4)ccc32)cc1 [MMV1782350]	72.1416%	-0.1916%	0.3132%	–	–	–	–
